Key:
[1] = target: T1, Atypical kinase COQ8B, mitochondrial (Homo sapiens) (UniProt Q96D53); conditions: at 10 µM
T1 sequence (whole entry): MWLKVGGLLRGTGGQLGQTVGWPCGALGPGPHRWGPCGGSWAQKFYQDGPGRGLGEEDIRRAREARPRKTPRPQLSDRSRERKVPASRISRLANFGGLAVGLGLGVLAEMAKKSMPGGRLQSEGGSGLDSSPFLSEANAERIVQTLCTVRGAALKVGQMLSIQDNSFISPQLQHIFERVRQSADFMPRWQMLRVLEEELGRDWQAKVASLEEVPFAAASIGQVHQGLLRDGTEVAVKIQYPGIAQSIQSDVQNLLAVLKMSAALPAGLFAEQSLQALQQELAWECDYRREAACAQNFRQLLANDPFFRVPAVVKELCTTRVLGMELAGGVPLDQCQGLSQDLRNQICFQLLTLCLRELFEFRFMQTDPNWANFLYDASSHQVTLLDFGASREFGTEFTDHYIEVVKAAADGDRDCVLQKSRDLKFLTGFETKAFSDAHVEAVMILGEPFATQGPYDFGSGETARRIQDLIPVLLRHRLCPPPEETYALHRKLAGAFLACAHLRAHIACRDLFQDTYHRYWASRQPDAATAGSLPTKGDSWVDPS

[2] = target: Macrophage colony-stimulating factor 1 receptor (Homo sapiens) (UniProt P07333); assay: Selectivity interaction (Upstate Kinase Profiler service (Millipore)) EUB0000056c CSF1R; conditions: at 1 µM
[3] = test system: T2, Receptor-type tyrosine-protein kinase FLT3 (Homo sapiens), P36888 [N841I]; conditions: at 10 µM
T2 sequence (whole entry): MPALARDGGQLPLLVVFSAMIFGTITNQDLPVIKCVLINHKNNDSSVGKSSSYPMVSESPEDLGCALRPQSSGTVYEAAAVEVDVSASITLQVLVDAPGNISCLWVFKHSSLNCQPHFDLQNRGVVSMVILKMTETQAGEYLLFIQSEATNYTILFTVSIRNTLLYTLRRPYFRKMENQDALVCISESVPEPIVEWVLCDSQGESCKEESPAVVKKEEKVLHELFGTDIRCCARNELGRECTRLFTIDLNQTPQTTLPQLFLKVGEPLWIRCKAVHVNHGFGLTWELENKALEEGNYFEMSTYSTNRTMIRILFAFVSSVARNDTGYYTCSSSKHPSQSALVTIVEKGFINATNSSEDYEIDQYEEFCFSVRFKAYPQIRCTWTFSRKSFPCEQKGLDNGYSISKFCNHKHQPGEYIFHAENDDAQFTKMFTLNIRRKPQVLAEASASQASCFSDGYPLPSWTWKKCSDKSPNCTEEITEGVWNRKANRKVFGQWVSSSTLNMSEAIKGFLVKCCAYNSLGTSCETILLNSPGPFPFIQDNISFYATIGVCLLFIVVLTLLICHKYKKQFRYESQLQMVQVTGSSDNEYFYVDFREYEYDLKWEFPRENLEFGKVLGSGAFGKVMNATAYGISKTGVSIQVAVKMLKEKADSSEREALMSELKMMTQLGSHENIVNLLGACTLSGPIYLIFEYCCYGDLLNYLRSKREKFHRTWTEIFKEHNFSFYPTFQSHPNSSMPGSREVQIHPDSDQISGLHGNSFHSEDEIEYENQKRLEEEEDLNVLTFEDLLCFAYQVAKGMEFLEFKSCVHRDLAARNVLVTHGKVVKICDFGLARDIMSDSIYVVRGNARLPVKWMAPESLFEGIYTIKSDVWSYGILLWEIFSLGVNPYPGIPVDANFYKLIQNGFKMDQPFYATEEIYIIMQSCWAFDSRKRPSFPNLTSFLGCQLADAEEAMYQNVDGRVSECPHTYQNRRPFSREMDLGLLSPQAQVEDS

[4] = target: T3, Phosphatidylinositol 5-phosphate 4-kinase type-2 beta (Homo sapiens) (UniProt P78356); assay: Selectivity interaction (KinomeScan (DiscoverX)) EUB0001049a PIP4K2B; conditions: at 1 µM
T3 sequence (whole entry): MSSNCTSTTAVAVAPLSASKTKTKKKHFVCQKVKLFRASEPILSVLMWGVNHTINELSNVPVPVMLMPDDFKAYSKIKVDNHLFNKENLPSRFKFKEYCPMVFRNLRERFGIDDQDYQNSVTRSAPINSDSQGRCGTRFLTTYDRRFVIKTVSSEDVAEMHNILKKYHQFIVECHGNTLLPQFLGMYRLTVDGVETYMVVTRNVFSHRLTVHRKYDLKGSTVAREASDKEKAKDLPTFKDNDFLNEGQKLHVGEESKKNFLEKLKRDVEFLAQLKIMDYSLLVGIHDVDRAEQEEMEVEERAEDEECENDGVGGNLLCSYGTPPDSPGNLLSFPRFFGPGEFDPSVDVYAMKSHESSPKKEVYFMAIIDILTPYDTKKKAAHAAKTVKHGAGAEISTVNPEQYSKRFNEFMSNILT

[5] = target: Calcium/calmodulin-dependent protein kinase type II subunit beta (Homo sapiens) (UniProt Q13554); assay: Selectivity interaction (KinomeScan (DiscoverX)) EUB0000045b CAMK2B
[6] = target: Phosphatidylinositol 4-phosphate 5-kinase type-1 alpha (Homo sapiens) (UniProt Q99755); assay: Selectivity interaction (KinomeScan (DiscoverX)) EUB0000618a PIP5K1A; conditions: at 10 µM
[7] = target: T4, Serine/threonine-protein kinase MAK (Homo sapiens) (UniProt P20794); assay: Selectivity interaction (Ambit KINOMEscan and KiNATiv profiling in Jurkat cells) EUB0000090b MAK; type: cell-based; conditions: at 1 µM
T4 sequence (whole entry): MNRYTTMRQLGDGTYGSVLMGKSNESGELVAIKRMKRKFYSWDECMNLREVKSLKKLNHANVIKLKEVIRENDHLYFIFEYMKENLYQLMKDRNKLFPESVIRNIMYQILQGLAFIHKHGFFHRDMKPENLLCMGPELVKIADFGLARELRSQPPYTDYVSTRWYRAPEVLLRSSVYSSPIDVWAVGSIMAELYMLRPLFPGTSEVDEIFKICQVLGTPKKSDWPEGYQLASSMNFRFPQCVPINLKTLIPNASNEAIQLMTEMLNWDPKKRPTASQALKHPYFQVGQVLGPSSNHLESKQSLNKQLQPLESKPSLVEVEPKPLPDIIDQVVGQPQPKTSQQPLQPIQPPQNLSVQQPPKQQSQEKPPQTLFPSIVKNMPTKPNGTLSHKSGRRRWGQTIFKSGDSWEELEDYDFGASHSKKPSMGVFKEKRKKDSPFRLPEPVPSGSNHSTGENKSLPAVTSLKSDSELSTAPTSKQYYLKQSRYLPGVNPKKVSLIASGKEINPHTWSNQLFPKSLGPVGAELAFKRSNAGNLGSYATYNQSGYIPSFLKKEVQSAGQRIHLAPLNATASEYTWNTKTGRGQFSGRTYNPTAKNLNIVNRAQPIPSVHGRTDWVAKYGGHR

Chain of Calcium/calmodulin-dependent protein kinase type II subunit beta (Homo sapiens) (Q13554 whole entry): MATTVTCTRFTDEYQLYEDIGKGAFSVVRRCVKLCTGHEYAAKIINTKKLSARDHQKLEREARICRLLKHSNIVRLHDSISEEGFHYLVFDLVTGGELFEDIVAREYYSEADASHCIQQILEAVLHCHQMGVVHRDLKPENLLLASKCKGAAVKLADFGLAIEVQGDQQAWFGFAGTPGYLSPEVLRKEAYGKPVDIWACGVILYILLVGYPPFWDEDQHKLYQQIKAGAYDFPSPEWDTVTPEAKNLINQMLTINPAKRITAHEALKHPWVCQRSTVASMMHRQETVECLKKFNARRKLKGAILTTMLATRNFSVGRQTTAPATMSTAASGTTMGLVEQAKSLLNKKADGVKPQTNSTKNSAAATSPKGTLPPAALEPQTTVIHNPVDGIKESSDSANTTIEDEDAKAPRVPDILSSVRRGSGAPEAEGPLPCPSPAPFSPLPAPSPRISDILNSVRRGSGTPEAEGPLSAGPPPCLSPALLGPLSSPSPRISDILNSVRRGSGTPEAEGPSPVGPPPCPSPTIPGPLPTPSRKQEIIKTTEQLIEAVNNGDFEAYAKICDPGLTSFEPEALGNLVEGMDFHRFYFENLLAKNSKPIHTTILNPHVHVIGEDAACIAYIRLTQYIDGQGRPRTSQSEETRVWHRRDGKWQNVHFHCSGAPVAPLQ
Chain of Phosphatidylinositol 4-phosphate 5-kinase type-1 alpha (Homo sapiens) (Q99755 whole entry): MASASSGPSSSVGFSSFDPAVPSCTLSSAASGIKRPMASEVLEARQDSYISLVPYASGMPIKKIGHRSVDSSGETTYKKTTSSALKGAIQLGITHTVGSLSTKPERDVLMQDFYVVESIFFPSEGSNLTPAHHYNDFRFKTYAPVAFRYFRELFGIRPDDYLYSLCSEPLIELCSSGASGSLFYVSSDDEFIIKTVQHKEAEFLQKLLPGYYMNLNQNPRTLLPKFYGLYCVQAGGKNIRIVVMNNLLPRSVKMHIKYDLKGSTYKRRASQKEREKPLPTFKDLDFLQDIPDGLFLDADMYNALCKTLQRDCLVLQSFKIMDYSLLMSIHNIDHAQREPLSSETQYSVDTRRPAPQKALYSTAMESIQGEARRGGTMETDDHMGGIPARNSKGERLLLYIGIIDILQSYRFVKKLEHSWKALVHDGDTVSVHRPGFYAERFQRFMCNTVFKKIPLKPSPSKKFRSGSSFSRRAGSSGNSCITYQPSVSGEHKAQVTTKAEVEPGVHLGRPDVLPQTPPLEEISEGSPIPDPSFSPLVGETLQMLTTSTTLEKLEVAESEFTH
Chain of Macrophage colony-stimulating factor 1 receptor (Homo sapiens) (P07333 whole entry): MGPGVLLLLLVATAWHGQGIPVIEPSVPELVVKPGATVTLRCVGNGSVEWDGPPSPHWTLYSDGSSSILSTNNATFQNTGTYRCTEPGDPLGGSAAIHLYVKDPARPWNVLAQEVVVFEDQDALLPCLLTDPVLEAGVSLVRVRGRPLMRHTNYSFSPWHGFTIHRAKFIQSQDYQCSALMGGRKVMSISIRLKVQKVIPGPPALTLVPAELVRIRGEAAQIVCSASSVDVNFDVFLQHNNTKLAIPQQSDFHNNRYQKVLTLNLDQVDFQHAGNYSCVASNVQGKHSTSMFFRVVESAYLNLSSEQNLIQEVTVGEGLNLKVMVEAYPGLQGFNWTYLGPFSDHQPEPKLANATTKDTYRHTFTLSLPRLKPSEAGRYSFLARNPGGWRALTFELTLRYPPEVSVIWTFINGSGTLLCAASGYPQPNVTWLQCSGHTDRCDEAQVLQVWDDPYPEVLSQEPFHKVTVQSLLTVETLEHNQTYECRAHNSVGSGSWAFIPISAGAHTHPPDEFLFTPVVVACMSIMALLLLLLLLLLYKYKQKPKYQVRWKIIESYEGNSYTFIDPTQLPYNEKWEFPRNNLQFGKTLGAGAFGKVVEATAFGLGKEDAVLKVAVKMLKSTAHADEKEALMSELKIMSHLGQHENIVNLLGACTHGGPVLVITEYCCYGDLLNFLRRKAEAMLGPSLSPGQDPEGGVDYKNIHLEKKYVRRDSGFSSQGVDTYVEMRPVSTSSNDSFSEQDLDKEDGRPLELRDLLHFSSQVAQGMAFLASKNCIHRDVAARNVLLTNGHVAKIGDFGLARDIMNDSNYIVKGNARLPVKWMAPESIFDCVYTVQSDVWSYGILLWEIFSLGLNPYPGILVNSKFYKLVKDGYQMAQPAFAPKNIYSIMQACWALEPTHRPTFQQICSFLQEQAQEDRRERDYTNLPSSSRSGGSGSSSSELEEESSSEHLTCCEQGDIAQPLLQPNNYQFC

For CCN(CC)CCCCNc1ncc2cc(-c3cc(OC)cc(OC)c3)c(NC(=O)NC(C)(C)C)nc2n1, the % of control [1] was 100%.

For Cc1ccc(-c2ccc3c(ccc4sc5c(c43)NC[C@@H](C)NC5=O)n2)cn1, the % of inhibition [2] was 13%.

Cc1cc([C@@H](C)Nc2ccccc2C(=O)O)c2nc(N3CCOCC3)cc(=O)n2c1 [AZD-6482] showed a % of control [3] of 44%.

COc1cc(Nc2nc(C)cc(-c3cnn4nc(OC)ccc34)n2)cc(C(F)(F)F)c1 was tested, and the % of control [4] was 96%.

For C=CC(=O)Nc1cc(-n2c(=O)ccc3cnc4ccc(-c5ccc(NS(C)(=O)=O)cc5)cc4c32)ccc1C, the % of control ([5]; at 1 µM) was 100% and the % of control ([5]; at 10 µM) was 74%.

O[C@H]1CC[C@H](Nc2ncc3nc(Nc4c(F)cc(F)cc4F)n([C@H]4CCOC4)c3n2)CC1 gave a % of control [6] of 93%.

Work on CN(C)C/C=C/C(=O)Nc1ccc(C(=O)N2CCCC(Nc3ncc(Cl)c(-c4c[nH]c5ccccc45)n3)C2)cc1 (stereo not drawn) yielded a % of control [7] of 63%.

From ChEMBL document CHEMBL5465560, “Selectivity Literature for EUbOPEN Chemogenomic Library” (2024)
